What was measured:
p70S6K (T412E mutant) = p70S6K (T412E mutant) (Homo sapiens (Human), UniProt P23443, T412E); experiment: p70S6K enzyme assay; format: biochemical; details: 24 μM ATP, 90 min at 25° C., Caliper mobility shift
His-AKT (Full Length) = His-AKT (Full Length) (Homo sapiens (Human), UniProt P31749); experiment: AKT/PKB kinase assay; format: biochemical; details: 160 μM ATP, 90 min at 25° C., Caliper mobility shift
His-AKT (Full Length), sequence (P31749 whole entry): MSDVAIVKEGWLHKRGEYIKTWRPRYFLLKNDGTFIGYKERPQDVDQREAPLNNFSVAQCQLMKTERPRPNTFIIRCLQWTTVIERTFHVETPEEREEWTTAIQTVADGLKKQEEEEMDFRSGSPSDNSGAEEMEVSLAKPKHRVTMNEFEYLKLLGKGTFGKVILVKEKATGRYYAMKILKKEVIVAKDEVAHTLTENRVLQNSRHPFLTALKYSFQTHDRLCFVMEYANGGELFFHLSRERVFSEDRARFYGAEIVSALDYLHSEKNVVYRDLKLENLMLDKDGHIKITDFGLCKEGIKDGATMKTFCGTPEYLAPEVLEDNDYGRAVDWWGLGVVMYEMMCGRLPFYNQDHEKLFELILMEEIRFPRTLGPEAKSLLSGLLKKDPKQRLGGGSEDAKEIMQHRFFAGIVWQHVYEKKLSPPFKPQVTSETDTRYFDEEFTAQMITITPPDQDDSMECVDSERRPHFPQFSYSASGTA

p70S6K (T412E mutant), sequence (P23443 whole entry T412E): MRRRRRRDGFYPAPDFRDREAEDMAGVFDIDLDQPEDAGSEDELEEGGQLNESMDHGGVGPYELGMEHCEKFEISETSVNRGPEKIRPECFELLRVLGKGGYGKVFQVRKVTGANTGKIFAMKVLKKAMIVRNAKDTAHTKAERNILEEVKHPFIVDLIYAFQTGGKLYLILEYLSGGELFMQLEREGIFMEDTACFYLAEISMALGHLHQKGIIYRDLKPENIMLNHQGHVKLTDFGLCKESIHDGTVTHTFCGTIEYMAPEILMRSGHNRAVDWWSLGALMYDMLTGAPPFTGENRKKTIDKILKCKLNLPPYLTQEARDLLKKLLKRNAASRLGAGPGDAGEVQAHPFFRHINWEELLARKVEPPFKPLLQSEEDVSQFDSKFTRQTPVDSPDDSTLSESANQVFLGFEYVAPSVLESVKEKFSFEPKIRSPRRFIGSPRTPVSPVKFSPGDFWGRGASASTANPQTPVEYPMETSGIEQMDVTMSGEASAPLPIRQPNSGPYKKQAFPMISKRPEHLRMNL

SMILES | IC50 (p70S6K (T412E mutant)) [nM] | IC50 (His-AKT (Full Length)) [nM]
NC(=O)c1ccnc2c(N[C@H](CN3CCC3)c3ccc(OC(F)(F)F)c(Cl)c3)ncnc12 [Compound 73, 4-[(S)-2-Azetidin-1-yl-1-(3-chloro4-trifluoromethoxy-phenyl)-ethylamino]-pyrido[3,2-d]pyrimidine-8-carboxylamide] | < 25 | 25 to 100
CNC[C@@H](Nc1ncnc2c(C(N)=O)ccnc12)c1ccc(Cl)c(Cl)c1 [Compound 75, 4-[(S)-1-(3,4-Dichloro-phenyl)-2-methylamino-ethylamino]-pyrido[3,2-d]pyrimidine-8-carboxylamide] | < 25 | < 25
CNC[C@@H](Nc1ncnc2c(C(N)=O)ccnc12)c1ccc(C)c(C(F)(F)F)c1 [Compound 76, 4-[(S)-2-Methylamino-1-(4-methyl-3-trifluoromethyl-phenyl)-ethylamino]-pyrido[3,2-d]pyrimidine-8-carboxylic Acid Amide] | < 25 | < 25

Second part, the compound after the results:

IC50 (p70S6K (T412E mutant)) [nM] | IC50 (His-AKT (Full Length)) [nM] | SMILES
< 25 | < 25 | CNC[C@@H](Nc1ncnc2c(C(N)=O)ccnc12)c1ccc(Cl)c(C(F)(F)F)c1 [Compound 72, 4-[(S)-1-(4-Chloro-3-trifluoromethyl-phenyl)-2-methylamino-ethylamino]-pyrido[3,2-d]pyrimidine-8-carboxylic Acid Amide]
< 25 | 25 to 100 | CNC[C@@H](Nc1ncnc2c(C(N)=O)ccnc12)c1ccc(OC(F)(F)F)c(Cl)c1 [Compound 74, 4-[(S)-1-(3-Chloro-4-trifluoromethoxy-phenyl)-2-methylamino-ethylamino]-pyrido[3,2-d]pyrimidine-8-carboxylamide]
